# Legend:
# [1] = system: H358 cells; assay: nucleotide excision repair assay (thymidine dimer slot blot); assay type: cell-based; conditions: 40 J/m2 UVC then 50 μM 1a; within 24 hours (untreated cells 50%)
# Description: Also shown are controls for no treatment (“c” minus 1a) or treatment with 1a only (“c” plus 1a). Each lane represents 60 μg protein. […] Each lane represents 60 μg protein.
# For NER, a slot blot immunoassay was used to detect the loss of thymidine dimers from the DNA of UVC treated cells as previously described. An antibody specific for cyclobutane pyrimidine dimers, the major photoproduct produced by UVC treatment, was purchased from Kamiya Biomedical Co(Seattle, Wash.; anti-thymidine dimer, clone KTM53) and used at 1:40 dilution.
# DNA repair can promote cell survival following DNA damage. Nucleotide excision repair (NER), which requires histone acetylation (Cazzalini et al., 2008, 36: 1713-22) removes bulky DNA adducts such as the intrastrand guanine-adenine crosslinks caused by cisplatin or the intrastrand thymidine dimers produced by UVC radiation. We assayed NER in the presence or absence of 50 μM 1a using an immunoblot analysis of thymidine dimers in cellular DNA prepared from cells at fixed times after exposure to 40 J/m^2UVC radiation. […] The results support a model in which acetylation of the core histones, accompanied by localized relaxation of chromatin structure, may be necessary to initiate DNA repair, possibly by allowing access of DNA to multiprotein repair complex involved in nucleotide excision repair, or by promoting recruitment of those factors. […]
# [2] = system: H358 lung cancer cells; assay: [3H]-thymidine incorporation DNA synthesis assay; assay type: cell-based; conditions: Homo sapiens, NCI-H358; Example 1: 50 μM 1a (continuous) + 5 nM camptothecin (24 h); 48 hours post treatment; read-out: DNA synthesis rate, % of control rate
# [3] = system: MCF7 breast cancer cells; conditions: 1a increasing concentrations; camptothecin 5 nM 18 hour
# Description: (A) [^3H]-thymidine incorporation into DNA of H358 cells (left panel) or MCF-7 cells (right panel) during a 6 hour pulse ending at the indicated time points after initiation of treatment. Treatments were 50 μM 1a alone, 5 nM camptothecin alone (CPT, 18 hours), 50 μM 1a+5 nm CPT (18 hours). Control cells were left untreated. (B) 2-day 96-well viability assays of H358 cells (left panel) or MCF-7 cells (right panel) grown in presence of increasing concentrations of 1a (continuous), with or without an 18-hour treatment with 5 nM camptothecin (CPT). Cell viability, represented as a percent of untreated cell viability (i.e., no 1a, no CPT), was determined 2 days post-start of treatment by the MTS bioconversion assay (MTS=(3-(4,5′-dimethylthiazol-2-yl)-5-(3-carboxymethoxylphenyl-2-(4-sulfophenyl)-2H-tetrazolium salt). Each data point represents the average of triplicate wells. Assays were carried out under conditions such that untreated cells remained in exponential growth. (C) [^3H]-thymidine incorporation into DNA of H358 cells carried out as in part “A”. Treatment consisted of 1a alone (50 μM), or cisplatin (2 μM, 1 hour, 15 minutes) alone or together with 1a (Panel 1); or UVC (40 J/m^2), alone or together with 1a (Panel 2); or 5-fluorouracil (5FU, 2 μM, 18 hours) alone or together with 1a (Panel 3), or Taxotere™ (5 nM, 18 hours), alone or together with 1a (Panel 4). Control cells were left untreated. Symbols are as follows: (-◯-) untreated control; (-●-) 50 μM 1a, (-∇-) drug or UVC alone; (-▾-) combination 1a+drug or UVC.
# Viability was measured 3 days after the start of treatment and is expressed as a percentage of control (untreated) cell viability.
# Each point is average of triplicates.
# Date of exp: 7-17-2010; located p.21 in Hat notebook: KB-2 (2010-2011).
# Cells were plated in 96-well plates (3000 cells per well) and incubated 18 hours with or without 5 nM camptothecin (Sigma, St Louis, Mo.). Triplicate wells were then treated with varying doses of 1a (from 0-50 μM). Control cells received neither 1a nor camptothecin. 2-day viability was determined by the MTS assay as previously (Saadatmandi et al., 2002, Cancer Gene Therapy, 9: 830-9) and expressed as a percentage of control cell viability.
# The present inventors carried out 96-well viability assays as we have previously described (Saadatmandi et al, Cancer Gene Therapy (2002) 9:830-9), in which MCF7 breast cancer cells were plated at 3000 cells per well. After overnight attachment, triplicate wells were treated with increasing doses of inhibitor 1a. Control wells were left untreated. After 3 days, cell viability was measured by the MTS assay, which measures the bioconversion of an uncolored substrate to a colored formazan derivative, and is proportional to cell number. […]
# [4] = system: DU 145 prostate cancer cells; assay: gamma-H2A.X immunofluorescence; assay type: cell-based; conditions: 8 hours, 5 nM camptothecin alone
# Excerpt: The immuno fluorescence images on the left and right sides of the middle scheme illustrate this visually. […] Cells were fixed and stained with a rabbit antibody to the histone variant, γ-H2A.X, a marker for DNA double stranded breaks, followed by staining with a fluorescein (FITC)-tagged goat anti rabbit secondary antibody. Nuclei were stained with Hoescht 33345.
# [5] = system: DLD-1 colon cancer cells; assay: 96-well MTS viability assay; assay type: cell-based; conditions: 3 days
# Description: Cells were plated in 96-well plates at 2000 cells per well and treated with the indicated doses of spd-3a. Cell viability was measured by the MTS assay 3 days later.
# DLD-1 cells or H358 cells were plated in 96-well plates at 2000 cells per well and treated with the indicated doses of (A) spm-3 or (B) spm-2. (C) Cell viability was measured by the MTS assay 3 days later. Similar experiment using GT41 fibroblasts with spm2 or spm 3. Each assay point represents an average of duplicates.
smiles,measurement,setting,value
"CC(C)(COP(=O)(O)OP(=O)(O)OC[C@H]1O[C@@H](n2cnc3c(N)ncnc32)[C@H](O)[C@@H]1OP(=O)(O)O)[C@@H](O)C(=O)NCCC(=O)NCCSCC(=O)NCCCNCCCCN [1a, spermidine[N1]-CoA]",decrease of thymidine dimers in DNA,[1],40%
same,activity at 50 µM,[2],~10%
CC[C@@]1(O)C(=O)OCc2c1cc1n(c2=O)Cc2cc3ccccc3nc2-1 [camptothecin],"2-day cumulative cell viability relative to untreated, single agent",[3],no effect
same,"DNA damage by γ-H2A.X staining, single agent",[4],minimal damage
CC(=O)NCCSCC(=O)NCCCNCCCCNCCCN [spm-3],"suppression of cell growth and viability, single agent",[5],effective as single agents

# From patent US9107879B1, “Methods of increasing the cytotoxicity of chemotherapeutic agents with multisubstrate inhibitors of histone, protein-lys, polyamine acetylation, and polyamine metabolism” (Vanderbilt University, priority 2010, dated 2015)
